The target in assay [1] is T1, GABAA2 receptors (α2, β3, γ2 receptor subunits transfected into Sf9 cells) (Homo sapiens, UniProt P18507+P47869).
T1 construct: host or cells: Sf9 cells (membranes)
Put plainly: GABAA2 Binding Method ([3H]-Flunitrazepam displacement). To be noted: [3H]-Flunitrazepam ~2 nM, α2β3γ2 Sf9 membranes, 1 hr at 4° C. The procedure, abridged: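 Displacement of [3H]-flunitrazepam (~2 nM in assay) from recombinant human α2β3γ2 receptors in Sf9 membranes; 1 h incubation at 4 °C, harvest by filtration. Values reported as percent of control, IC50 and Ki.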

The target in assay [2] is T2, GABAA receptor α1β2γ2 (Homo sapiens, UniProt P14867+P18507).
T2 construct: expressed in transfected cells; host or cells: Xenopus laevis oocytes injected with cRNA
T2 sequence (P14867 28-456): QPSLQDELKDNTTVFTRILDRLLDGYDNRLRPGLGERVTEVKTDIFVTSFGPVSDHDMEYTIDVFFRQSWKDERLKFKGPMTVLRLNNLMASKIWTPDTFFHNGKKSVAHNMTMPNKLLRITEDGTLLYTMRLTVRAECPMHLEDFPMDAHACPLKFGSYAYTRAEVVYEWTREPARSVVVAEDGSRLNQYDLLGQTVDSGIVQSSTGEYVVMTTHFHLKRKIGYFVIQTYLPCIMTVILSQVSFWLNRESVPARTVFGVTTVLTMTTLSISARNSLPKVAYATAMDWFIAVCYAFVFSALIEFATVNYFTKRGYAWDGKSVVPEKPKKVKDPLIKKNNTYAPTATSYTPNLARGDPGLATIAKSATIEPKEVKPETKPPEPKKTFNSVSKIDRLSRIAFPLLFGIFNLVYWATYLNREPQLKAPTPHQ
T2 sequence (P47870 25-512 partner limits assumed): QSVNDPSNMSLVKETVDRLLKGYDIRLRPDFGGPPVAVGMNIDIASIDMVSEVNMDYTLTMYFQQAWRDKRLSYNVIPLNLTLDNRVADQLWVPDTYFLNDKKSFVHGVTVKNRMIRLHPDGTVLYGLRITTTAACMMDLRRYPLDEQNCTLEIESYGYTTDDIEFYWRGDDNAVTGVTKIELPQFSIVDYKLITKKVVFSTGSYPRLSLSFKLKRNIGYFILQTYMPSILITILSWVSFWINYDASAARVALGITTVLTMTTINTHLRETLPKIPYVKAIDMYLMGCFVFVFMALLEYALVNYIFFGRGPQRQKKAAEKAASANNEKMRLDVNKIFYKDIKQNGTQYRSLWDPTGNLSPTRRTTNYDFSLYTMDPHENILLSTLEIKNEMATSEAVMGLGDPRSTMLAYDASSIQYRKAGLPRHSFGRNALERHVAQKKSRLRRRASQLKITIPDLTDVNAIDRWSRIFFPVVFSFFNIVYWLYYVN
T2 sequence (P18507 40-475): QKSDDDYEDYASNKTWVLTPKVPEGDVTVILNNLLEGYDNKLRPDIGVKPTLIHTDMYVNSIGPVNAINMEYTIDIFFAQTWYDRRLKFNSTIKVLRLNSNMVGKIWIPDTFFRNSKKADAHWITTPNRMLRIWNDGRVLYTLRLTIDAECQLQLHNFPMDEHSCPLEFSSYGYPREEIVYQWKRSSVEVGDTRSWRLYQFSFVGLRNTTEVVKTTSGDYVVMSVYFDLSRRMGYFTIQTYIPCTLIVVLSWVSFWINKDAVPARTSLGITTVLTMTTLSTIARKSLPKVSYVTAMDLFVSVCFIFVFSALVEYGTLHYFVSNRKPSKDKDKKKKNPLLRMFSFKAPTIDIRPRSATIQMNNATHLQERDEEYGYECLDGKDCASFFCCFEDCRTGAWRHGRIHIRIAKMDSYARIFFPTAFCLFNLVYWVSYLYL
Put plainly: Two-electrode voltage-clamp potentiation of GABA EC10 current in Xenopus oocytes, GABAA1. The settings on record: percentage potentiation of GABA EC10 current divided by that of diazepam. In kind it is cell-based. How it is done:
GABAA receptors were heterologously expressed in Xenopus oocytes by injecting cRNA corresponding to human α1, α2, α3, α5, β2, P3 and γ2 subunits of the GABAA receptor genes. The specific subunit combinations (subtypes) were as follows: α1β2γ2, α2β3γ2, α3β3γ2, and α5β3γ2. The EC10 of GABA is approximated for each cell. Stability of GABA-mediated (EC10) current is established. Modulatory effect of test compound is determined and compared across subtypes. […] Thus, the assay can characterize modulatory effects and determine subtype selectivity of test compounds on major subtypes of GABAA receptors.
Xenopus laevis frogs (Xenopus I, Kalamazoo, Mich.) were anesthetized using 0.15% tricaine. Surgically removed ovarian lobes were teased out in OR2 solution (82 NaCl, 2.5 KCl, 5 HEPES, 1.5 NaH2PO4, 1 MgCl2, 0.1 EDTA, in mM, pH 7.4). The oocytes were defolliculated by incubation in 25 mL OR2 containing 0.2% collagenase 1A (SIGMA) two times for about 60 minutes on a platform shaker and stored in Leibovitz's L-15 medium. Oocytes were injected the following day in 0.5× Leibovitz's L-15 medium containing […] gentamycin, 10 units/ml penicillin, and […] streptomycin.
Capped cRNAs from the linearized vectors containing human α1, β2 and γ2 subunits of the GABAA receptor genes were mixed in ratio of […]. Oocytes were injected with 25-50 nL of mixed RNA with an appx molar ratio for α1, β2, and γ2 as 1:1:10. Oocyte recordings were done 2-10 days after injection. The same methods apply to subtypes derived from α2β3γ2, α3β3γ2, and α5β3γ2, except for 1:1:1 ratio was used for α, β, and γ subunits.
All measurements were done in a medium containing ND-96 (96 NaCl, 2 KCl, 1.8 CaCl2.2H2O, 1 MgCl2.6H2O, 5 HEPES, in mM, pH 7.5). Two-electrode voltage-clamp recording was carried out using OpusXpress amplifier (Axon Instruments, Foster City, Calif.), which allows simultaneous recording from 8 oocytes. Oocytes were impaled with two electrodes of 1-2 MΩ tip resistance when filled with 3M KCl. Recordings were begun when membrane potential became stable at potentials negative to −50-−60 mV. Membrane potential was held at −60 mV. […] The concentration of GABA corresponded to the EC10 value calculated for each oocyte. The modulator pulses started 30 s before the GABA pulse so as to allow preincubation with the modulator. A set of 3 pulses with just GABA without modulator was given prior to the modulator-containing pulses to define the baseline GABA response. Two oocytes per each experiment were dedicated to observe the effect of diazepam on GABA response to ensure the presence of γ2 subunit in the GABAA pentameric complex, which imparts diazepam sensitivity to the complex.
Current amplitude (i) was measured from baseline to peak using Clampfit (Axon Inst., Foster City, Calif.). Potentiation was calculated as percent change from the baseline GABA current flux 100×(imod/icontrol)−1) where imod=current mediated by modulator+GABA and icontrol=current mediated by GABA alone. […] Similarly, a value of −50% potentiation means the presence of modulator caused a 50% decrease in the control current. Various other data shown here were fitted and plotted using GraphPad Prism (GraphPad Software, Inc. San Diego, Calif.). The percentage potentiation was converted to relative potentiation by dividing it with percentage potentiation value obtained from the same assay with diazepam as a control.
(In general: Two-electrode voltage clamp holds a large cell at a set potential and records current.)

Each structure is given as a SMILES string.

T1 sequence (P47869 29-451): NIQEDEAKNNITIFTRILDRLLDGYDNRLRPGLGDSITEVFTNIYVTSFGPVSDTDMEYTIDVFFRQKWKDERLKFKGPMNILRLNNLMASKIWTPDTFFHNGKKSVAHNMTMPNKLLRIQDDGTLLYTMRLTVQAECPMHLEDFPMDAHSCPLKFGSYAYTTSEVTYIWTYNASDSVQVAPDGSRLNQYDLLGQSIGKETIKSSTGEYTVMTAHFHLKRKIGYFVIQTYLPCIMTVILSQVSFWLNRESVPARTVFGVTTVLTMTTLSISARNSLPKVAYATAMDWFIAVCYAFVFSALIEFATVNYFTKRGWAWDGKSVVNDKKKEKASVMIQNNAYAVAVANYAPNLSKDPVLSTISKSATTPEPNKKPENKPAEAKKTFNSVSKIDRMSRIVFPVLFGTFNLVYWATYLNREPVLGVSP
T1 sequence (P28472 26-473 partner): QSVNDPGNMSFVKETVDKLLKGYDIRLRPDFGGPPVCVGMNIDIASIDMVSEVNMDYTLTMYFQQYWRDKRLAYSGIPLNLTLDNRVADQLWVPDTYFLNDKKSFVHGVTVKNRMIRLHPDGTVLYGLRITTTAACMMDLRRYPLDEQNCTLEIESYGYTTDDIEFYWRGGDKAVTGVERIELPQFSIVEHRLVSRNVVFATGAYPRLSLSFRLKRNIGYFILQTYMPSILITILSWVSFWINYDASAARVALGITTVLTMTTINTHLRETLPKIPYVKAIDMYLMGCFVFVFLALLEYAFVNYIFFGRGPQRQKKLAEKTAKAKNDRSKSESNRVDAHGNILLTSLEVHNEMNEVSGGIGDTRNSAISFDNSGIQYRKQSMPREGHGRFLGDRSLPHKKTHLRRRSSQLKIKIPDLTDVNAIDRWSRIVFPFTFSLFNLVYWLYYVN
T1 sequence (P18507 40-475): as the sequence (P18507 40-475) above

Consider `CCCN1Cc2nc3c(-c4ccc(OC)cc4OC)c(F)ccc3c(N)c2C1=O` [9-amino-5-(2,4-dimethoxyphenyl)-6-fluoro-2-propyl-2,3-dihydro-1H-pyrrolo[3,4-b]quinolin-1-one], for which, in assay [1], the Ki worked out at 13.9 nM. In addition, the “Relative Potentiation for GABAA1” value in assay [2] is 0.39.

With `CCCN1Cc2nc3c(-c4cnc(OC)nc4OC)c(F)ccc3c(N)c2C1=O` [9-amino-5-(2,4-dimethoxypyrimidin-5-yl)-6-fluoro-2-propyl-2,3-dihydro-1H-pyrrolo[3,4-b]quinolin-1-one], in assay [1], the Ki is 8.89 nM. Moreover, in assay [2], the “Relative Potentiation for GABAA1” value stood at 0.22.

As for `COc1ccc(CN2Cc3nc4c(-c5cc(F)c(OC)cc5F)cccc4c(N)c3C2=O)cc1` [9-amino-5-(2,5-difluoro-4-methoxyphenyl)-2-(4-methoxybenzyl)-2,3-dihydro-1H-pyrrolo[3,4-b]quinolin-1-one], in assay [1], the Ki turned out to be 48.4 nM. The “Relative Potentiation for GABAA1” value in assay [2] was determined as 0.29.

As to `COc1cccc(CN2Cc3nc4c(-c5cc(OC)ccc5OC)cccc4c(N)c3C2=O)c1` [9-amino-5-(2,5-dimethoxyphenyl)-2-(3-methoxybenzyl)-2,3-dihydro-1H-pyrrolo[3,4-b]quinolin-1-one], in assay [1], the affinity corresponds to a Ki of 26.9 nM. The “Relative Potentiation for GABAA1” value in assay [2] was determined as 0.25.

In the case of `CCCN1Cc2nc3c(-c4c(F)cc(OC)cc4F)cccc3c(N)c2C1=O` [9-amino-5-(2,6-difluoro-4-methoxyphenyl)-2-propyl-2,3-dihydro-1H-pyrrolo[3,4-b]quinolin-1-one], the Ki in assay [1] was 12.2 nM. Also, the “Relative Potentiation for GABAA1” value in assay [2] came out at 0.16.

In the case of `CCCN1Cc2nc3c(-c4ccc(F)nc4F)cccc3c(N)c2C1=O` [9-amino-5-(2,6-difluoropyridin-3-yl)-2-propyl-2,3-dihydro-1H-pyrrolo[3,4-b]quinolin-1-one], affinity in assay [1] was put at a Ki of 75.3 nM. For the same compound, the “Relative Potentiation for GABAA1” value in assay [2] is given as 0.21.

Consider `CCCN1Cc2nc3c(-c4cc(F)cnc4Cl)cccc3c(N)c2C1=O` [9-amino-5-(2-chloro-5-fluoropyridin-3-yl)-2-propyl-2,3-dihydro-1H-pyrrolo[3,4-b]quinolin-1-one], for which the Ki in assay [1] turned out to be 16.3 nM. Moreover, the “Relative Potentiation for GABAA1” value in assay [2] was 0.38.

`CCCN1Cc2nc3c(-c4cc(OC)cnc4Cl)cccc3c(N)c2C1=O` [9-amino-5-(2-chloro-5-methoxypyridin-3-yl)-2-propyl-2,3-dihydro-1H-pyrrolo[3,4-b]quinolin-1-one] showed a Ki in assay [1] of 9.72 nM. The “Relative Potentiation for GABAA1” value in assay [2] is on record as 0.45.

On to `Cc1ccc(-c2cccc3c(N)c4c(nc23)CN(C2CC2)C4=O)c(Cl)n1` [9-amino-5-(2-chloro-6-methylpyridin-3-yl)-2-cyclopropyl-2,3-dihydro-1H-pyrrolo[3,4-b]quinolin-1-one], for which the Ki in assay [1] was 7.87 nM. In addition, the “Relative Potentiation for GABAA1” value in assay [2] was found to be 0.4.

`CCCN1Cc2nc3c(-c4ccccc4Cl)cccc3c(N)c2C1=O` [9-amino-5-(2-chlorophenyl)-2-propyl-2,3-dihydro-1H-pyrrolo[3,4-b]quinolin-1-one] showed a Ki in assay [1] of 4.82 nM. Further, the “Relative Potentiation for GABAA1” value in assay [2] amounted to 0.35.

Take `CCCN1Cc2nc3c(-c4cccnc4OCC)cccc3c(N)c2C1=O` [9-amino-5-(2-ethoxypyridin-3-yl)-2-propyl-2,3-dihydro-1H-pyrrolo[3,4-b]quinolin-1-one]: the Ki in assay [1] worked out at 15 nM. Moreover, the “Relative Potentiation for GABAA1” value in assay [2] is reported as 0.56.

`COc1ccc(CN2Cc3nc4c(-c5cccc(OC)c5F)cccc4c(N)c3C2=O)cc1` [9-amino-5-(2-fluoro-3-methoxyphenyl)-2-(4-methoxybenzyl)-2,3-dihydro-1H-pyrrolo[3,4-b]quinolin-1-one] came in with a Ki in assay [1] of 8.03 nM. The “Relative Potentiation for GABAA1” value in assay [2] turned out to be 0.36.

`CCCN1Cc2nc3c(-c4cccc(OC)c4F)cccc3c(N)c2C1=O` [9-amino-5-(2-fluoro-3-methoxyphenyl)-2-propyl-2,3-dihydro-1H-pyrrolo[3,4-b]quinolin-1-one] had a Ki in assay [1] of 11.5 nM. Further, the “Relative Potentiation for GABAA1” value in assay [2] is listed as 0.2.

In assay [1], `CCCN1Cc2nc3c(-c4ccc(OC)cc4F)cccc3c(N)c2C1=O` [9-amino-5-(2-fluoro-4-methoxyphenyl)-2-propyl-2,3-dihydro-1H-pyrrolo[3,4-b]quinolin-1-one] returned a Ki of 12.8 nM. For the same compound, in assay [2], the “Relative Potentiation for GABAA1” value is reported as 0.12.

For the compound `CCCN1Cc2nc3c(-c4cc(C(F)(F)F)ccc4F)cccc3c(N)c2C1=O` [9-amino-5-(2-fluoro-5-(trifluoromethyl)phenyl)-2-propyl-2,3-dihydro-1H-pyrrolo[3,4-b]quinolin-1-one], the Ki in assay [1] amounted to 24 nM. In assay [2], the “Relative Potentiation for GABAA1” value is 0.55.

`CCCN1Cc2nc3c(-c4cc(F)ncc4OC)cccc3c(N)c2C1=O` [9-amino-5-(2-fluoro-5-methoxypyridin-4-yl)-2-propyl-2,3-dihydro-1H-pyrrolo[3,4-b]quinolin-1-one] displayed a Ki in assay [1] of 8.08 nM. The “Relative Potentiation for GABAA1” value in assay [2] was 0.6.

For the compound `CCCN1Cc2nc3c(-c4cc(C)ccc4F)cccc3c(N)c2C1=O` [9-amino-5-(2-fluoro-5-methylphenyl)-2-propyl-2,3-dihydro-1H-pyrrolo[3,4-b]quinolin-1-one], the Ki in assay [1] was determined as 6.77 nM. The “Relative Potentiation for GABAA1” value in assay [2] turned out to be 0.27.

Turning to `CCCN1Cc2nc3c(-c4cc(C)cnc4F)cccc3c(N)c2C1=O` [9-amino-5-(2-fluoro-5-methylpyridin-3-yl)-2-propyl-2,3-dihydro-1H-pyrrolo[3,4-b]quinolin-1-one], in assay [1], affinity was put at a Ki of 7.55 nM. Also, the “Relative Potentiation for GABAA1” value in assay [2] is reported as 0.33.

The compound `COc1ccc([C@@H](C)N2Cc3nc4c(-c5c(F)cccc5OC)cccc4c(N)c3C2=O)cc1` [9-amino-5-(2-fluoro-6-methoxyphenyl)-2-((R)-1-(4-methoxyphenyl)ethyl)-2,3-dihydro-1H-pyrrolo[3,4-b]quinolin-1-one] gave a Ki in assay [1] of 20.9 nM. In addition, in assay [2], the “Relative Potentiation for GABAA1” value is −0.008.

The compound `CCCN1Cc2nc3c(-c4ccc(C)nc4OC)cccc3c(N)c2C1=O` [9-amino-5-(2-methoxy-6-methylpyridin-3-yl)-2-propyl-2,3-dihydro-1H-pyrrolo[3,4-b]quinolin-1-one] showed a Ki in assay [1] of 24 nM. Moreover, the “Relative Potentiation for GABAA1” value in assay [2] was 1.1.

Take `CCCN1Cc2nc3c(-c4ccc(OC)c(OC)c4)cccc3c(N)c2C1=O` [9-amino-5-(3,4-dimethoxyphenyl)-2-propyl-2,3-dihydro-1H-pyrrolo[3,4-b]quinolin-1-one]: the affinity in assay [1] corresponds to a Ki of 12.3 nM. The “Relative Potentiation for GABAA1” value in assay [2] was found to be 1.1.

As to `COc1ccc(CN2Cc3nc4c(-c5cc(F)cc(F)c5)cccc4c(N)c3C2=O)cc1OC` [9-amino-5-(3,5-difluorophenyl)-2-(3,4-dimethoxybenzyl)-2,3-dihydro-1H-pyrrolo[3,4-b]quinolin-1-one], the affinity in assay [1] corresponds to a Ki of 15.3 nM. In addition, in assay [2], the “Relative Potentiation for GABAA1” value turned out to be 0.24.

As to `CCCN1Cc2nc3c(-c4cc(OC)cc(OC)c4)cccc3c(N)c2C1=O` [9-amino-5-(3,5-dimethoxyphenyl)-2-propyl-2,3-dihydro-1H-pyrrolo[3,4-b]quinolin-1-one], the affinity in assay [1] corresponds to a Ki of 46.7 nM. For the same compound, the “Relative Potentiation for GABAA1” value in assay [2] turned out to be 0.6.

In assay [1], `CCN1Cc2nc3c(-c4cc(C)cc(C)c4)cccc3c(N)c2C1=O` [9-amino-5-(3,5-dimethylphenyl)-2-ethyl-2,3-dihydro-1H-pyrrolo[3,4-b]quinolin-1-one] returned a Ki of 14.2 nM. Moreover, the “Relative Potentiation for GABAA1” value in assay [2] was found to be 0.34.

In general, Ki refers to a measure of affinity in units of concentration, obtained from inhibition or displacement. Higher therefore signals weaker binding.

Source of the values: US20080318943A1, “Compounds and Uses Thereof - 848” (ASTRAZENECA AB, priority 2007, published 2008).
